Calls of active or inactive are those of the source. No cut-off for these calls is given here.
Legend:
[1] = Inhibition of ABCB1 in multidrug-resistant human SW620/Ad300 cells assessed as increase in reversal of resistance to paclitaxel-induced cytotoxicity by measuring paclitaxel IC50 pre-incubated for 4 hrs followed by paclitaxel addition and measured after 72 hrs by MTT assay (reference value: 4.23 +/- 0.6 uM)
SW-620 [2] = assay: Effect on intracellular PTX concentration in human SW620 cells at 4 uM pre-incubated for 4 hrs followed by PTX addition and measured after 2 hrs by liquid scintillation counting analysis; format: functional, cell-based; conditions: time 6.0 hrs
SW-620 [3] = conditions: Homo sapiens, dose 6.0 mg/kg/day, time 21.0 day
[4] = target: Multidrug resistance-associated protein 1 (Homo sapiens, UniProt P33527); assay: Stabilization of ABCC1 in human SW620/Ad300 cells assessed as inhibition of high temperature-induced ABCB1 protein degradation at 200 uM incubated for 30 mins by cellular thermal shift assay; format: cell-based; conditions: sw-620, 0.5 h
SW-620 [5] = assay: Potentiation of PTX-induced antitumor activity against human SW620/Ad300 cells xenografted in BALB/c mouse assessed as reduction in tumor volume at 20 mg/kg/day, ig for 21 days relative to PTX alone; format: functional, organism-based; conditions: time 21.0 day
SW-620 [6] = assay: Antitumor activity against human SW620/Ad300 cells xenografted in BALB/c mouse assessed as induction of tumor apoptosis by measuring nuclear pyknosis at 20 mg/kg/day, ig for 21 days by TUNEL assay; format: functional, organism-based; conditions: time 21.0 day
[7] = Toxicity in BALB/c mouse xenografted with human SW620/Ad300 cells assessed as induction of mortality at 20 mg/kg/day, ig; format: organism-based; conditions: in vivo, po
SW-620 [8] = assay: Effect on ABCB1 subcellular localization in human SW620/Ad300 cells at 20 uM incubated for 72 hrs by Western blotting analysis; format: functional, cell-based
SW-620 [9] = assay: Potentiation of PTX-induced antitumor activity against human SW620/Ad300 cells xenografted in BALB/c mouse assessed as reduction in tumor weight at 20 mg/kg/day, ig for 21 days relative to PTX alone; format: functional, organism-based; conditions: time 21.0 day
[10] = Reversal of resistance to paclitaxel-induced cytotoxicity in HEK293 cells assessed as reduction in paclitaxel IC50 at 20 uM pre-incubated for 4 hrs followed by paclitaxel addition and measured after 72 hrs by MTT assay; format: functional, Homo sapiens; conditions: time 76 hrs
SW-620 [11] = assay: Effect on intracellular PTX concentration in human SW620 cells at 20 uM pre-incubated for 4 hrs followed by PTX addition and measured after 2 hrs by liquid scintillation counting analysis; format: functional, cell-based; conditions: time 6.0 hrs
SW-620 [12] = assay: Antitumor activity against human SW620/Ad300 cells xenografted in BALB/c mouse assessed as reduction in tumor volume at 20 mg/kg/day, ig for 21 days; format: functional, organism-based; conditions: time 21.0 day
[13] = target: T1, ATP-dependent translocase ABCB1 (Homo sapiens, UniProt P08183); assay: Stabilization of ABCB1 in human SW620/Ad300 cells assessed as inhibition of high temperature-induced ABCB1 protein degradation at 200 uM incubated for 30 mins by cellular thermal shift assay; format: cell-based; conditions: sw-620, 0.5 h
SW-620 [14] = assay: Antitumor activity against human SW620/Ad300 cells xenografted in BALB/c mouse assessed as induction of tumor death by measuring nuclear pyknosis at 20 mg/kg/day, ig for 21 days by H and E staining based assay; format: functional, organism-based; conditions: time 21.0 day
CYP3A4 = CYP3A4 (Homo sapiens, UniProt P08684); assay: Activation of CYP3A4 in human liver microsomes at 20 uM after 30 mins in presence of CYP3A4 substrate/NADP+ by fluorescence based assay; format: ADME; conditions: read-out: FC
SW-620 [15] = assay: Inhibition of [3H]PTX efflux in human SW620 cells at 20 uM pre-incubated for 4 hrs followed by PTX addition and measured after 2 hrs by liquid scintillation counting analysis; format: functional, cell-based; conditions: time 6.0 hrs
[16] = Reversal of resistance to paclitaxel-induced cytotoxicity in human KB-3-1 cells assessed as reduction in paclitaxel IC50 at 10 uM pre-incubated for 4 hrs followed by paclitaxel addition and measured after 72 hrs by MTT assay; format: functional; conditions: time 76 hrs
[17] = Reversal of resistance to paclitaxel-induced cytotoxicity against human SW620 cells by measuring reduction in paclitaxel IC50 at 10 uM pre-incubated for 4 hrs followed by paclitaxel addition and measured after 72 hrs by MTT assay; format: functional, SW-620; conditions: time 76 hrs
[18] = Reversal of resistance to paclitaxel-induced cytotoxicity in human KB-3-1 cells assessed as reduction in paclitaxel IC50 at 20 uM pre-incubated for 4 hrs followed by paclitaxel addition and measured after 72 hrs by MTT assay; format: functional; conditions: time 76 hrs
Cytochrome P450 3A4 = Cytochrome P450 3A4 (Homo sapiens, UniProt P08684); assay: Activation of CYP3A4 in human liver microsomes at 30 uM incubated for 10 mins in presence of CYP3A4 substrate/NADP+ by fluorescence based assay; format: ADME
[19] = Toxicity in BALB/c mouse xenografted with human SW620/Ad300 cells assessed as induction of liver injury at 20 mg/kg/day, ig by H and E staining based assay; format: organism-based; conditions: in vivo, po
[20] = Reversal of resistance to paclitaxel-induced cytotoxicity against human SW620 cells by measuring reduction in paclitaxel IC50 at 20 uM pre-incubated for 4 hrs followed by paclitaxel addition and measured after 72 hrs by MTT assay; format: functional, SW-620; conditions: time 76 hrs
SW-620 [21] = assay: Effect on ABCB1 protein expression in human SW620/Ad300 cells at 20 uM incubated for 72 hrs by Western blotting analysis; format: functional, cell-based
[22] = Reversal of resistance to paclitaxel-induced cytotoxicity in HEK293 cells assessed as reduction in paclitaxel IC50 at 10 uM pre-incubated for 4 hrs followed by paclitaxel addition and measured after 72 hrs by MTT assay; format: functional, Homo sapiens; conditions: time 76 hrs
[23] = Toxicity in BALB/c mouse xenografted with human SW620/Ad300 cells assessed as effect on body weight changes at 20 mg/kg/day, ig; format: organism-based; conditions: in vivo, po
[24] = target: T1, ATP-dependent translocase ABCB1; assay: Stimulation of ABCB1 ATPase activity (unknown origin) assessed as increase in inorganic phosphate release at 5 to 45 uM incubated for 20 mins in presence of Mg-ATP by spectrophotometry; conditions: dose 5-45 µM
[25] = Toxicity in human SW-620/Ad300 cells assessed as cell viability at 20 uM incubated for 72 hrs by MTT assay; format: cell-based; conditions: read-out: Activity

T1 sequence (P08183 whole entry): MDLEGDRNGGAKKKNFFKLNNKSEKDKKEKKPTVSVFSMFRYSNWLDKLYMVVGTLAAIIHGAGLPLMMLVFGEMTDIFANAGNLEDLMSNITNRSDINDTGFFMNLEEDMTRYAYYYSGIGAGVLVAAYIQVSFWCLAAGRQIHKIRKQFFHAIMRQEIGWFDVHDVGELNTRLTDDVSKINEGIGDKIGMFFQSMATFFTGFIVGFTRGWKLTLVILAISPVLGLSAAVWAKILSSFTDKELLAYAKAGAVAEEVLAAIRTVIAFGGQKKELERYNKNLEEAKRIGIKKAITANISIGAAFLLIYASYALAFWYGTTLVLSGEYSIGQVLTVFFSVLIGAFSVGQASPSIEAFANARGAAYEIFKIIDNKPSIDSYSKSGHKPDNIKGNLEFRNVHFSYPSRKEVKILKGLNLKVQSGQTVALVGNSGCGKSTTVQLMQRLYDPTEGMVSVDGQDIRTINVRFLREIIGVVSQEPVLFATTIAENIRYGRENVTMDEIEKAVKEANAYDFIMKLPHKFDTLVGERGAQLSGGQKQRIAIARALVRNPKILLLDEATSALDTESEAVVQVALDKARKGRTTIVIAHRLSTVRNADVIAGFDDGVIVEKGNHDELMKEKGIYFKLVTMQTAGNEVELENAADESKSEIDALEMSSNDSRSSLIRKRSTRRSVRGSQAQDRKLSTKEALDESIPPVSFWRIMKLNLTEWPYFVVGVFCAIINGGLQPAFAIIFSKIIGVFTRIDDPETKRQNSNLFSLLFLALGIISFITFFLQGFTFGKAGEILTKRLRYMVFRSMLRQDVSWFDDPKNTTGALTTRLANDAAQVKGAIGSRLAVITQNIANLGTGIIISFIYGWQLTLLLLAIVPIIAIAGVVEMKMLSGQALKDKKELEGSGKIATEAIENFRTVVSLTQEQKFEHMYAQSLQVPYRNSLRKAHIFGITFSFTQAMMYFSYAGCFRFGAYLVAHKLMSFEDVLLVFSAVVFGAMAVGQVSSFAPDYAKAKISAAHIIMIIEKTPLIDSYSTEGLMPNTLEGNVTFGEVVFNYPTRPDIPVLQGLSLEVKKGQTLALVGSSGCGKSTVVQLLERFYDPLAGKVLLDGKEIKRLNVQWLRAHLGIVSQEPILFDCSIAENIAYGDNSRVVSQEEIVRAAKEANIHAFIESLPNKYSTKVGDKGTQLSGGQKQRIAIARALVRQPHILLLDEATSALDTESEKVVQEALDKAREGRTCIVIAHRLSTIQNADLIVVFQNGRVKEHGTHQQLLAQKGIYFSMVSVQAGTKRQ
Sequence of Cytochrome P450 3A4 (P08684 whole entry): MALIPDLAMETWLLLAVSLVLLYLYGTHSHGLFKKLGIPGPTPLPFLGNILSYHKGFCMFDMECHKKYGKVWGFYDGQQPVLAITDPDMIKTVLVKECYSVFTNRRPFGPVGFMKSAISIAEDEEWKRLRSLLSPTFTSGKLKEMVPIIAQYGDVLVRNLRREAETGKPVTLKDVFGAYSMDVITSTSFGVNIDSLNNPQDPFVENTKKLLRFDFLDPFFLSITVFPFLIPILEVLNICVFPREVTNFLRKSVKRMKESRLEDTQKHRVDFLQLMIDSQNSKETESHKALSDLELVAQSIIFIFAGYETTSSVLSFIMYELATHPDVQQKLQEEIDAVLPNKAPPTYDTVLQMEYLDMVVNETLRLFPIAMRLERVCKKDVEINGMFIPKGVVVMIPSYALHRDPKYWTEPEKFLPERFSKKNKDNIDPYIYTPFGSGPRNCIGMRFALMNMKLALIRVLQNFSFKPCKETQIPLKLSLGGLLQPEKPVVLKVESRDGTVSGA
Sequence of CYP3A4 (P08684 whole entry): as above
Sequence of Multidrug resistance-associated protein 1 (P33527 whole entry): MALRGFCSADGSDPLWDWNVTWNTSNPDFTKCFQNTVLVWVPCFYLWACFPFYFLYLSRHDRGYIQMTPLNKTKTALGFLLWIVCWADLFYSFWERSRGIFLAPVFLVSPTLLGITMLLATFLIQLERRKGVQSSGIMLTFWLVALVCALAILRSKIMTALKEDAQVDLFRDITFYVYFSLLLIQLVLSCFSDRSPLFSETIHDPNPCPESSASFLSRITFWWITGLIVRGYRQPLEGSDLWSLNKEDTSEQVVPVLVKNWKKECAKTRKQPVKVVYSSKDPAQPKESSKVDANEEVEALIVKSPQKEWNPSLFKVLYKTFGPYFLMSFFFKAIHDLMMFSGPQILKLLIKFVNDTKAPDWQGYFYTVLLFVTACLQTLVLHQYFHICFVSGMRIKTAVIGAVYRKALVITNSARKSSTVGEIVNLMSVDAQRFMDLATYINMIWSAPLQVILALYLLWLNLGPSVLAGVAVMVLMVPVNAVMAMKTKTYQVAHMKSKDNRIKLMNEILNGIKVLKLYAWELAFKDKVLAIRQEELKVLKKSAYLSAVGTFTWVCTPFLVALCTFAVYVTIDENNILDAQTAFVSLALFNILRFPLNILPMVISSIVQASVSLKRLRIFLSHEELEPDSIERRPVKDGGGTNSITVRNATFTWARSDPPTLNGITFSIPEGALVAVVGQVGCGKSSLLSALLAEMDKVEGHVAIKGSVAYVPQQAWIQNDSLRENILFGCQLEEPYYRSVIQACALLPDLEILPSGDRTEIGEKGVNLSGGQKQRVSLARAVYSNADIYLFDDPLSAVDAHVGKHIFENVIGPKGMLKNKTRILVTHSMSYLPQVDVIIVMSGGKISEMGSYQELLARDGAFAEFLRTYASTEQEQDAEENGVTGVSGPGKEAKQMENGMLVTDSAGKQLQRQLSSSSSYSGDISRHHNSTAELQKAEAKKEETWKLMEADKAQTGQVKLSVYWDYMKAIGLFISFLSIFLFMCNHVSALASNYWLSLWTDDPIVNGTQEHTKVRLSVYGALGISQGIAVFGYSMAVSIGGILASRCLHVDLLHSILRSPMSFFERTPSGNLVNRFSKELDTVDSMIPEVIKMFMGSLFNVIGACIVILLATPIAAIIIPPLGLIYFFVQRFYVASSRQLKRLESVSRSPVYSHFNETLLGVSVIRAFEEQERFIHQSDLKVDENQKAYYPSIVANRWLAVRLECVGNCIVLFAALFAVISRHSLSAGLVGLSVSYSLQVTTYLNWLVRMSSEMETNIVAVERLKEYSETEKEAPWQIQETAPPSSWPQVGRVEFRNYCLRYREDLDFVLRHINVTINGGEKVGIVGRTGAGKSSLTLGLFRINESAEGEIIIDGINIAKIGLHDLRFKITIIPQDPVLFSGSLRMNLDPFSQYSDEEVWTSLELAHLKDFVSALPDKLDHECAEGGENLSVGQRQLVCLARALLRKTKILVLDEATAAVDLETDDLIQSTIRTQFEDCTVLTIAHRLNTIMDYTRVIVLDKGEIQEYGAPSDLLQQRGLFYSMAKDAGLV

Cc1cc(Nc2c(F)cccc2F)n2nc(SCc3nc4ccccc4[nH]3)nc2n1
IC50 [1]: 0.79 µM

Cc1ccc(CSc2nc3nc(C)cc(Nc4ccc(F)cc4)n3n2)cc1
IC50 [1]: 2.04 µM

N#Cc1c(Nc2cccc(Cl)c2)nc(SCC(=O)NC(=O)Nc2ccccn2)nc1-c1ccccc1
IC50 [1]: 5 µM

COc1ccc(CSc2nc3nc(C)cc(Nc4ccc(F)cc4)n3n2)cc1
IC50 [1]: 1.93 µM

Cc1cc(Nc2ccccc2)n2nc(SCc3nc4ccccc4[nH]3)nc2n1
IC50 [1]: 0.046 µM

COc1ccc(CCN(C)CCCC(C#N)(c2ccc(OC)c(OC)c2)C(C)C)cc1OC (stereo not given)
Activity (SW-620 [2]): inactive | TGI (SW-620 [3]): Active

Cc1cc(Nc2cc(F)c(F)cc2F)n2nc(SCc3nc4ccccc4[nH]3)nc2n1
IC50 [1]: 0.26 µM

CCc1cc(Nc2ccc(F)cc2)n2nc(SCc3ccccc3)nc2n1
IC50 [1]: 1.61 µM

Cc1cc(Nc2ccc(F)cc2)n2nc(SCc3nc4ccccc4[nH]3)nc2n1
Activity [4]: Not Active | TGI (SW-620 [5]): Active | Activity (SW-620 [6]): Active | Activity [7]: Non-Toxic | Activity (SW-620 [8]): inactive | TGI (SW-620 [9]): Active | fold change (FC) [10]: 1.29 | Activity (SW-620 [11]): inactive | TGI (SW-620 [12]): inactive | Activity [13]: Active | Activity (SW-620 [14]): Active | fold induction at 0.5 h, 20 µM (CYP3A4): 1.06 | inhibition (SW-620 [15]): Active | fold change (FC) [16]: 1.5 | fold change (FC) [17]: 1.05 | fold change (FC) [18]: 1.52 | Activity (Cytochrome P450 3A4): Active | Activity [19]: Non-Toxic | fold change (FC) [20]: 1.5 | Activity (SW-620 [21]): inactive | fold change (FC) [22]: 1.3 | Activity [23]: Non-Toxic | fold change (FC) [24]: 2.5

Cc1ccccc1Nc1nc(SCc2cn(Cc3ccc(Cl)cc3)nn2)nc(-c2ccccc2)c1C#N
IC50 [1]: 36 µM

Cc1cc(Nc2ccc(F)cc2)n2ncnc2n1
viability at 72 h, 20 µM [25]: 93.2%

Cc1cc(Nc2ccc(O)c(Cl)c2)n2nc(SCc3nc4ccccc4[nH]3)nc2n1
IC50 [1]: 3.22 µM

Source: ChEMBL document CHEMBL4673345 (J Med Chem, 2020)
